Results: US20200291018A1, “TAM KINASE INHIBITORS” (SYROS PHARMACEUTICALS, INC., priority 2017, published 2020)
Counter-ions that a name gives are not always drawn.

Experiments:
MERTK = molecular target: T1, MERTK (Homo sapiens, UniProt Q12866); assay: TR-FRET kinase activity assay, MERTK; assay type: biochemical; settings: for IC50: TR-FRET activity assay, ATP at Km, 60 minutes, read-out: Mer IC50; for Mer/Flt3 ratio (FLT3 IC50/Mer IC50): ratio calculated as FLT3 IC50/Mer IC50
T1 sequence (Q12866 21-999): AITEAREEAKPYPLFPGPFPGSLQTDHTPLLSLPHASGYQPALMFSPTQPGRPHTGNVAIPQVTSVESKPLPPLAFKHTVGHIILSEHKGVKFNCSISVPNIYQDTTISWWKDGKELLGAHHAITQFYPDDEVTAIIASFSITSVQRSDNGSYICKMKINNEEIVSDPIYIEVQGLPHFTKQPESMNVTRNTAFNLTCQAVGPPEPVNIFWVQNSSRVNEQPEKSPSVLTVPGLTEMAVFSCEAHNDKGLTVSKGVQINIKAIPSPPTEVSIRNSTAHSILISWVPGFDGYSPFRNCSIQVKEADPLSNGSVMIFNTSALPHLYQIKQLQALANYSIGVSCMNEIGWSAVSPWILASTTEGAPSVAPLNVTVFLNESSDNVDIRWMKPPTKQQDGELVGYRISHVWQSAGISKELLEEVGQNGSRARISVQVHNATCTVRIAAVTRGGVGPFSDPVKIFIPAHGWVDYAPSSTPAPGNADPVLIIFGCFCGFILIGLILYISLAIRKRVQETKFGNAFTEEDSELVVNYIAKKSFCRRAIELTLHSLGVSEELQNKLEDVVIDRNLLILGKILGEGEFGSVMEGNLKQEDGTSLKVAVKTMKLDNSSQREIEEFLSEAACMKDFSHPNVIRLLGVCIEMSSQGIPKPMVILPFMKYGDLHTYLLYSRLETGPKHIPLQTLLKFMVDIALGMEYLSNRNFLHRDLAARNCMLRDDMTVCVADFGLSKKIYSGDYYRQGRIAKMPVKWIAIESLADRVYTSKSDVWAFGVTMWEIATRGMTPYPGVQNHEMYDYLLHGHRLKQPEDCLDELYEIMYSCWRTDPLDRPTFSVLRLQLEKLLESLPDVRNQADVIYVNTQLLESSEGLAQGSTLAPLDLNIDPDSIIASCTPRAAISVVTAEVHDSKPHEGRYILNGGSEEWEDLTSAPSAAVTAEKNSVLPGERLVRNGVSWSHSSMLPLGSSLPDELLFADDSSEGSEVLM
Method in brief: (§1)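 Steps: compound, enzyme and labeled peptide combined at RT (50 mM HEPES pH 7.5, 10 mM MgCl2, 1 mM DTT); ATP added at Km; 60 min reaction; EDTA quench; Eu-antibody development 30 min in darkness; TR-FRET measured and IC50 fitted.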

FLT3 = molecular target: T2, FLT3 (Homo sapiens, UniProt P36888); assay: TR-FRET kinase activity assay, FLT3; assay type: biochemical; settings: ATP at Km, 60 minutes
T2 sequence (P36888 27-993): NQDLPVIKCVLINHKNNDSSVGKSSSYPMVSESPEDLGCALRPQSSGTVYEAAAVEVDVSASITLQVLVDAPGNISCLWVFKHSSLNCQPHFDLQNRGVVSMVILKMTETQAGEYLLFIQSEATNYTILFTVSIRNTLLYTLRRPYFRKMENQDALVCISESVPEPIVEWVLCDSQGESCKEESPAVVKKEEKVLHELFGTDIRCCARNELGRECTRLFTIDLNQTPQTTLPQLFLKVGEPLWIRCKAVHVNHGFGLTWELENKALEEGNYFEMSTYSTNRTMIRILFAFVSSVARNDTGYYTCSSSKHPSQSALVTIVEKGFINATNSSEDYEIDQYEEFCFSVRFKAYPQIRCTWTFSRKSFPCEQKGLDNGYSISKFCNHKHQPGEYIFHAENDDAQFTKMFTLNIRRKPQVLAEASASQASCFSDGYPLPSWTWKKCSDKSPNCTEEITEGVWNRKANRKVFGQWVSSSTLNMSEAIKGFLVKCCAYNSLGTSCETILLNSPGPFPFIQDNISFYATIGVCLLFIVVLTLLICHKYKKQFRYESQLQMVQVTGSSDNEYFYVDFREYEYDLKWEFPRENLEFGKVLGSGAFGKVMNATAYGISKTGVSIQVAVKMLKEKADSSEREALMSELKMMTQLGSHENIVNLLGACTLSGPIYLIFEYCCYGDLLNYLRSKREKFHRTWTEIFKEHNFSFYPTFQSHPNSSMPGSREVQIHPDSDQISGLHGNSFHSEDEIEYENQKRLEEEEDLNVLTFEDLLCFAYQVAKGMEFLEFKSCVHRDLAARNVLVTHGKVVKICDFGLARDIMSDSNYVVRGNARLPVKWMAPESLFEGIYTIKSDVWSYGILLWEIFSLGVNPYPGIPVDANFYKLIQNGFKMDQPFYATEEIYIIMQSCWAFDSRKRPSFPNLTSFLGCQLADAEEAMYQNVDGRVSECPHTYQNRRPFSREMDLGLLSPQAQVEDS
Method in brief: as §1

Row | Structure (SMILES) | IC50 (MERTK) | Mer/Flt3 ratio (FLT3 IC50/Mer IC50) (MERTK) | IC50 (FLT3)
1 | CCCCNc1ncc2c(=O)n(-c3ccc(CN4CCOCC4)cc3)cc([C@H]3CC[C@H](O)CC3)c2n1 [Compound 101] | ≤ 100 nM | + (a ratio of >2.0 and <10) | 100 to 1000 nM
2 | CCCCNc1ncc2c(NCc3ccc(F)cc3)ncc([C@H]3CC[C@H](O)CC3)c2n1 [Compound 103, 4-[2-(butylamino)-5-[(4-fluorophenyl)methylamino]pyrido[4,3-d]pyrimidin-8-yl]cyclohexanol hydrochloride] | ≤ 100 nM | + (a ratio of >2.0 and <10) | ≤ 100 nM
3 | CCCCNc1ncc2c(OC3CCOCC3)ncc([C@H]3CC[C@H](O)CC3)c2n1 [Compound 104, (1r,4r)-4-(2-(butylamino)-5-((tetrahydro-2H-pyran-4-yl)oxy)pyrido[4,3-d]pyrimidin-8-yl)cyclohexanol] | ≤ 100 nM | + (a ratio of >2.0 and <10) | ≤ 100 nM
4 | CCCCNc1ncc2c(OC)ncc([C@H]3CC[C@H](O)CC3)c2n1 [Compound 127] | ≤ 100 nM | + (a ratio of >2.0 and <10) | ≤ 100 nM
5 | CCCC(C)Nc1ncc2c(=O)n(C3CCN(C(C)=O)CC3)cc([C@H]3CC[C@H](O)CC3)c2n1 (stereo partly drawn) [Compound 128, 6-(1-acetylpiperidin-4-yl)-8-((1r,4r)-4-hydroxycyclohexyl)-2-(pentan-2-ylamino)pyrido[4,3-d]pyrimidin-5(6H)-one hydrochloride] | ≤ 100 nM | +++ (a ratio of >100) | 1000 to 10000 nM
6 | CCCCNc1ncc2c(OC3CCNCC3)ncc([C@H]3CC[C@H](O)CC3)c2n1 [Compound 129] | ≤ 100 nM | + (a ratio of >2.0 and <10) | ≤ 100 nM
7 | CCCCC[C@H](C)Nc1ncc2c(OC3CCNCC3)ncc([C@H]3CC[C@H](O)CC3)c2n1 [Compound 130] | ≤ 100 nM | +++ (a ratio of >100) | 1000 to 10000 nM
8 | CCCCNc1ncc2c(OC3CCN(C)CC3)ncc([C@H]3CC[C@H](O)CC3)c2n1 [Compound 131] | ≤ 100 nM | + (a ratio of >2.0 and <10) | ≤ 100 nM
9 | O[C@H]1CC[C@H](c2cnc(OC3CCOCC3)c3cnc(NC4CCCC4)nc32)CC1 [Compound 132] | ≤ 100 nM | ++ (a ratio of between 10 and 100) | ≤ 100 nM
10 | CCCC(C)Nc1ncc2c(OC3CCOCC3)ncc([C@H]3CC[C@H](O)CC3)c2n1 (stereo partly drawn) [Compound 133] | ≤ 100 nM | +++ (a ratio of >100) | 1000 to 10000 nM
11 | O[C@H]1CC[C@H](c2cnc(OC3CCOCC3)c3cnc(Nc4ccc(Cl)cc4)nc32)CC1 [Compound 134, (1r,4r)-4-(2-((4-chlorophenyl)amino)-5-((tetrahydro-2H-pyran-4-yl)oxy)pyrido[4,3-d]pyrimidin-8-yl)cyclohexan-1-ol] | ≤ 100 nM | + (a ratio of >2.0 and <10) | 100 to 1000 nM
12 | CC(C)Nc1ncc2c(OC3CCNCC3)ncc([C@H]3CC[C@H](O)CC3)c2n1 [Compound 135] | ≤ 100 nM | +++ (a ratio of >100) | 1000 to 10000 nM
13 | O[C@H]1CC[C@H](c2cnc(OC3CCNCC3)c3cnc(N[C@H]4CCOC4)nc32)CC1 [Compound 136] | ≤ 100 nM | ++ (a ratio of between 10 and 100) | 1000 to 10000 nM
14 | C[C@@H](CO)Nc1ncc2c(OC3CCOCC3)ncc([C@H]3CC[C@H](O)CC3)c2n1 [Compound 137] | 100 to 1000 nM | ++ (a ratio of between 10 and 100) | 1000 to 10000 nM
15 | CCCC(C)Nc1ncc2c(=O)n(C3CCN(S(C)(=O)=O)CC3)cc([C@H]3CC[C@@H](O)CC3)c2n1 (stereo partly drawn) [Compound 138] | ≤ 100 nM | +++ (a ratio of >100) | 1000 to 10000 nM
16 | CCCC(C)Nc1ncc2c(O[C@H]3CC[C@H](O)CC3)ncc([C@H]3CC[C@H](O)CC3)c2n1 (stereo partly drawn) [Compound 139] | ≤ 100 nM | +++ (a ratio of >100) | 100 to 1000 nM
17 | CCC(C)Nc1ncc2c(OC3CCOCC3)ncc([C@H]3CC[C@H](O)CC3)c2n1 (stereo partly drawn) [Compound 140] | ≤ 100 nM | +++ (a ratio of >100) | 1000 to 10000 nM
18 | CCCC(C)Nc1ncc2c(OC3CCS(=O)(=O)CC3)ncc([C@H]3CC[C@H](O)CC3)c2n1 (stereo partly drawn) [Compound 141] | ≤ 100 nM | +++ (a ratio of >100) | 1000 to 10000 nM
19 | CCCC(C)Nc1ncc2c(OC3CCS(=O)(=O)CC3)ncc([C@H]3CC[C@@H](O)CC3)c2n1 (stereo partly drawn) [Compound 142] | ≤ 100 nM | ++ (a ratio of between 10 and 100) | 1000 to 10000 nM
20 | CCCC(C)Nc1ncc2c(OC3CCN(S(C)(=O)=O)CC3)ncc([C@H]3CC[C@H](O)CC3)c2n1 (stereo partly drawn) [Compound 143] | ≤ 100 nM | +++ (a ratio of >100) | 1000 to 10000 nM
21 | CC1(C)CC(Nc2ncc3c(OC4CCOCC4)ncc([C@H]4CC[C@H](O)CC4)c3n2)C1 [Compound 144] | ≤ 100 nM | + (a ratio of >2.0 and <10) | ≤ 100 nM
22 | COC[C@@H](C)Nc1ncc2c(OC3CCOCC3)ncc([C@H]3CC[C@H](O)CC3)c2n1 [Compound 145] | 100 to 1000 nM | ++ (a ratio of between 10 and 100) | 1000 to 10000 nM
23 | CCCC(C)Nc1ncc2c(N(C)C3CCN(C)CC3)ncc([C@H]3CC[C@H](O)CC3)c2n1 (stereo partly drawn) [Compound 146] | ≤ 100 nM | ++ (a ratio of between 10 and 100) | 1000 to 10000 nM
24 | CCCC(C)Nc1ncc2c(OC3CCC(OC)CC3)ncc([C@H]3CC[C@H](O)CC3)c2n1 (stereo partly drawn) [Compound 147] | ≤ 100 nM | +++ (a ratio of >100) | 1000 to 10000 nM
